One block for each molecule: values may come before it.
Columns and labels:
[1] = molecular target: T1, E. coli β-galactosidase (LacZ) (Escherichia coli, UniProt P00722); assay: LacZ inhibition assay in microfluidic droplets with fluorogenic substrate FMG; assay type: biochemical
Method: In the enzyme inhibition assay, the rate of catalysis is determined by using a non-fluorescent substrate for LacZ, fluorescein mono-β-D-galactoside (FMG), and measuring the appearance of the fluorescent product, fluorescein (excitation […], emission 514 nm). All components of the LacZ inhibition assay are dissolved in assay buffer (10 mM MgCl2, 50 mM NaCl, 1 mM DTT, 100 μg/ml BSA, 10
Leading into each droplet forming module (FIG. 15) are two TEFLON® tubes leading from syringe pumps. The channels leading from each tube merge to create a single flow before entering the droplet forming module. The two syringes feeding into the first droplet forming module contain, (a) 50 μM PETG in assay buffer, and (b), assay buffer. The two syringes feeding into the second droplet forming module contain, (c) 100 nM LacZ in assay buffer, and (d), assay buffer. The two syringes feeding into the third droplet forming module contain, (e) 5 mM FMG in assay buffer, and (f), assay buffer. The final concentration of each component in each droplet is independently controllable by adjusting relative flow rates of each component and buffer solution while maintaining a constant combined flow rate from both syringes.
The first droplet fusion mixes the inhibitor (PETG) with the enzyme (LacZ). After the combined droplet has spent two minutes in a delay line it is fused with a third droplet containing the fluorogenic enzyme substrate (FMG). Finally, after all the components are mixed the reaction is observed by measuring fluorescence of individual droplets or by integrating fluorescent light from droplets with the same concentration of each component during 10-second exposure time at multiple points in the second 10 min long delay line. Each fluorescence intensity value at different positions is proportional to the amount of product at different reaction times. Rate of product formation is linear during initial reaction time and initial rate (v) can be determined from linear fitting. […]

[2] = molecular target: T1, E. coli β-galactosidase (LacZ); details: Huang, 1991, cited from earlier work
[3] = Compartmentalisation of small molecules in water-in-fluorocarbon emulsions (exchange between microdroplets); assay type: physicochemical; details: water-in-perfluorooctyl bromide emulsion; 24 hours after mixing
Method: Water-in-fluorocarbon emulsions containing 95% (v/v) perfluorooctyl bromide, 5% (v/v) phosphate buffered saline containing the molecule of interest in solution, and 2% (w/v) C8F17C11H22OP(O)[N(CH2CH2)2O]2 (F8H1 IDMP) as surfactant were formed essentially as (Sadtler et al., 1996) by extrusion (15 times) through 14 μm filters (Osmonics) or by homogenising for 5 min at 25,000 r.p.m. using an Ultra-Turrax T8 Homogenizer (DCA) with a 5 mm dispersing tool. Emulsions were made containing a series of small fluorescent molecules dissolved in the aqueous phase at concentrations from […] to 2 mM. These molecules, including calcein, texas red, fluorescein, coumarin 102, 7-hydroxycoumarm-3-carboxylic acid and 7-diethylamino-4-methyl coumarin (coumarin 1), had molecular weights from 203 to 625 Da and Log P values—calculated using SRC's Log Kow/KowWin Program (Meylan and Howard, 1995)—ranging from −0.49 to 4.09. […]
Compartmentalisation of small molecules in a water-in-fluorocarbon emulsions made using microfluidic systems. […] These molecules, including calcein, texas red, fluorescein, coumarin 102, 7-hydroxycoumarin-3-carboxylic acid and 7-diethylamino-4-methyl coumarin (coumarin 1), had molecular weights from 203 to 625 Da and Log P values—calculated using SRC's Log Kow/KowWin Program (Meylan and Howard, 1995)—ranging from −0.49 to 4.09. […]

PTP1B = molecular target: T2, PTP1B (Homo sapiens, UniProt P18031); details: cited from earlier work
T2 sequence (P18031 1-435): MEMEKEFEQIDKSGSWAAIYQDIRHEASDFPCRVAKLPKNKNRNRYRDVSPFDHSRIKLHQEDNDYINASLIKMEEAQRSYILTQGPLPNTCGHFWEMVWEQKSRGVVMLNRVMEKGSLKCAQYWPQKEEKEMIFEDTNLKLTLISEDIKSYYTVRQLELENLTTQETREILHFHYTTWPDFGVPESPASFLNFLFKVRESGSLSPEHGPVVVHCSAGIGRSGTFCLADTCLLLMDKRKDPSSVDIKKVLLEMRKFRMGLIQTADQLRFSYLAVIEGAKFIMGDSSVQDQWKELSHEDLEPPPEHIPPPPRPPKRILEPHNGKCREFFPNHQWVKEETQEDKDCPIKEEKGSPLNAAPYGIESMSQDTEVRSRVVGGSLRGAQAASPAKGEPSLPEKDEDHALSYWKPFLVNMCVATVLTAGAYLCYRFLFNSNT

[4] = molecular target: T3, human recombinant PTP1B, residues 1-322 (Homo sapiens, UniProt P18031); assay: Screening for PTP1B inhibitors in microcapsules in a microfluidic system, fluorogenic substrate DiFMUP; assay type: biochemical; details: Example 2, 100 μM compound solution, PTP1B 50 mU/ml
T3 construct: human recombinant PTP1B, residues 1-322; purchased Biomol Research Laboratories, Inc
T3 sequence (P18031 1-322): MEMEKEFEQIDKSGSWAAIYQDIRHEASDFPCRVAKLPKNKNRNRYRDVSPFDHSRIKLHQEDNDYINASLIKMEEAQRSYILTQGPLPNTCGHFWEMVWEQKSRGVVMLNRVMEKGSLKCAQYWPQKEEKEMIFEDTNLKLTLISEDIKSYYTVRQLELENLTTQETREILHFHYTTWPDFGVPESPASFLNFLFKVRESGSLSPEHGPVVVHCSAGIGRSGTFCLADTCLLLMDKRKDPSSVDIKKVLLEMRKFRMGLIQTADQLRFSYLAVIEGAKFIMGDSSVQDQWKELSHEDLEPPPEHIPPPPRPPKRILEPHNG
Method: All water-soluble reagents are dissolved in (25 mM HEPES, pH 7.4, 125 mM NaCl, 1 mM EDTA), a buffer compatible with PTP1B activity. […] Each microcapsule containing target enzyme is fused with a microcapsule containing compound 2 or a microcapsule containing hydrocinnamic acid. Microcapsules containing either compound 2 or hydrocinnamic acid can be formed by switching between injection with syringes containing compound 2 and hydrocinnamic acid.
After microcapsule fusion the contents are rapidly mixed. After this point the microcapsules are run for up to 1 min through a 60 cm long microchannel (to allow inhibitor binding). This microchannel is then merged with a second microchannel containing aqueous microcapsules containing the fluorogenic PTP1B substrate 6,8-difluoro-4-methylumbelliferyl phosphate (DiFMUP) (Molecular Probes) in 25 mM HEPES, pH 7.4, 125 mM NaCl, 1 mM EDTA and the microcapsules fused pairwise. […] Fluorescence of the microcapsules due to production of DiFMU (excitation/emmission maxima 358/452 nm; blue fluorescence) is measured. […]
The 96 mixtures are distributed into 96 wells of a microtitre plate. […] Inhibitors reduce the amount of non-fluorescent substrate (DiFMUP) converted to the dephosphorylated product (DiFMU; excitation/emmission maxima 358/452 nm; blue fluorescence). Microcapsule fluorescence is then analysed.

[5] = 30 nM LacZ, 0 to 13 μM PETG, 10 to 700 μM FMG

T1 sequence (P00722 2-1024): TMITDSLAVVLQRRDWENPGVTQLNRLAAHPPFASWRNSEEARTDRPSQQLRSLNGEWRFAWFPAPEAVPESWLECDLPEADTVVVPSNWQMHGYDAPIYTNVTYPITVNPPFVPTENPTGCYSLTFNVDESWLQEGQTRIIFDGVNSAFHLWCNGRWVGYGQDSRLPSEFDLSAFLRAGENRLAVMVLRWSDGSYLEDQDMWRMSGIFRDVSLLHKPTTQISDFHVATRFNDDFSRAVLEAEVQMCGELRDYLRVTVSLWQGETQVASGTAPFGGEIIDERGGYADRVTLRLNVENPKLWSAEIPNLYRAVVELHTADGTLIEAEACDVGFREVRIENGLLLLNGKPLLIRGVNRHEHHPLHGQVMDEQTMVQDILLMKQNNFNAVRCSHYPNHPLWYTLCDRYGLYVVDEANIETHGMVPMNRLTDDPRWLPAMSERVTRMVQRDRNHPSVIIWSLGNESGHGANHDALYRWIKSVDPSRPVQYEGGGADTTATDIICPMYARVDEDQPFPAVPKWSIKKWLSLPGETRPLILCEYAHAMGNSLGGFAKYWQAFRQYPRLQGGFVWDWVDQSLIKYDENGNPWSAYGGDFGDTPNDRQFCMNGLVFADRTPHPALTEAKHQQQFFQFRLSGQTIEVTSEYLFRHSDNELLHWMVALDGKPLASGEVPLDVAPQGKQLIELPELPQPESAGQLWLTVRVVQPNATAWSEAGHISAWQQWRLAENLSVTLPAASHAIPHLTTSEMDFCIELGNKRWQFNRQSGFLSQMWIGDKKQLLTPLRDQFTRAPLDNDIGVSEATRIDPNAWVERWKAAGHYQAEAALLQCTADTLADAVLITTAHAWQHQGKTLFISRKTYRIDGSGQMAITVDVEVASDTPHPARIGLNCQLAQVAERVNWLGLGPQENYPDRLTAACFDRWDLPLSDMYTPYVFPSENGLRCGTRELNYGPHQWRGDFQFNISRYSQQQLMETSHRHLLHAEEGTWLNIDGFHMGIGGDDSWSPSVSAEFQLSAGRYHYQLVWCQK

Molecule: OCC1OC(SCCc2ccccc2)C(O)C(O)C1O [PETG, phenylethyl β-D-thiogalactopyranoside]
- Ki of PETG for LacZ as determined [1, 5]: within the range of the previously published value
- Mode of inhibition ([1]; Lineweaver-Burk plot): competitive
- Ki ([2]; read-out: Ki of PETG for LacZ, previously published value): 980 nM

Molecule: O=C1OC2(c3ccc(O)cc3Oc3cc(O[C@@H]4O[C@H](CO)[C@H](O)[C@H](O)[C@H]4O)ccc32)c2ccccc21 (stereo partly drawn) [FMG, fluorescein mono-β-D-galactoside]
- XM of FMG for LacZ as determined [1, 5]: within 20% of the previously published value
- XM of FMG for LacZ, previously published value [2]: 118 µM

Molecule: O=C(O)CCc1ccccc1 [hydrocinnamic acid]
- PTP1B inhibitor or not (statement) (PTP1B): not a PTP1B inhibitor
- Fluorescence of the microcapsules due to production of DiFMU [4]: exhibiting blue fluorescence

Results, then the molecule that gave them:

- Exchange between microdroplets/compartments [3]: No exchange
Molecule: texas red

- Exchange between microdroplets/compartments [3]: No exchange
Molecule: O=C(O)CN(CC(=O)O)Cc1cc2c(cc1O)Oc1cc(O)c(CN(CC(=O)O)CC(=O)O)cc1C21OC(=O)c2ccccc21 [calcein]

Source: patent US11821109B2, “Compartmentalised combinatorial chemistry by microfluidic control” (President and Fellows of Harvard College, priority 2004, dated 2023)
